Three compounds from patent US11142514B2, “Imino compounds with a 2-chloropyrimidin-5-yl substituent as pest-control agents” (BASF SE, priority 2015, dated 2021) can be followed below.

Bounds are passed on as bounds.

Common to all, as to assay type: in vivo
The test system of data set [1] is Cotton aphid (Aphis gossypii). The data set can be described thus: Cotton aphid (Aphis gossypii) foliar spray test B.3. The following applies: for Activity in %: comparative experiment, 300 ppm, assay according to B.3. How it is done:
(§1) The active compounds were formulated by a Tecan liquid handler in 100% cyclohexanone as a 10,000 ppm solution supplied in tubes. The 10,000 ppm solution was serially diluted in 100% cyclohexanone to make interim solutions. These served as stock solutions for which final dilutions were made by the Tecan in 50% acetone:50% water (v/v) into 10 or 20 ml glass vials. A nonionic surfactant (Kinetic®) was included in the solution at a volume of 0.01% (v/v). The vials were then inserted into an automated electrostatic sprayer equipped with an atomizing nozzle for application to plants/insects.
Cotton plants at the cotyledon stage were infested with aphids prior to treatment by placing a heavily infested leaf from the main aphid colony on top of each cotyledon. Aphids were allowed to transfer overnight to accomplish an infestation of 80-100 aphids per plant and the host leaf was removed. The infested plants were then sprayed by an automated electrostatic plant sprayer equipped with an atomizing spray nozzle. The plants were dried in the sprayer fume hood, removed from the sprayer, and then maintained in a growth room under fluorescent lighting in a 24-hr photoperiod at 25° C. and 20-40% relative humidity. Aphid mortality on the treated plants, relative to mortality on untreated control plants, was determined after 5 days.
(§2) The compound of example I-1 was compared with the compound of example I.B-4 of WO 2015/040116 having an unsubstituted pyrimidin-5-yl ring instead of the present 2-chloropyrimidin-5-yl ring with respect to the insecticidal activity. The assays were carried out as described above for the respective pest (the cotton aphid assay according to B.3).

The test system of data set [2] is Vetch aphid (Megoura viciae). The data set can be described thus: Vetch aphid (Megoura viciae) leaf disk test B.19. The following applies: foliar, 120 h, read-out: mortality in comparison with untreated controls. How it is done:
For evaluating control of vetch aphid (Megoura viciae) through contact or systemic means the test unit consisted of 24-well-microtiter plates containing broad bean leaf disks.
The compounds were formulated using a solution containing 75% v/v water and 25% v/v DMSO. Different concentrations of formulated compounds were sprayed onto the leaf disks at 2.5 μl, using a custom built micro atomizer, at two replications.
After application, the leaf disks were air-dried and 5-8 adult aphids placed on the leaf disks inside the microtiter plate wells. The aphids were then allowed to suck on the treated leaf disks and incubated at about 23±1° C. and about 50±5% relative humidity for 5 days. Aphid mortality and fecundity was then visually assessed.

The subject of data set [3] is Green Soldier Stink Bug (Nezara viridula). The data set can be described thus: Green soldier stink bug (Nezara viridula) test B.8. The following applies: in Glycine max, 120 h, read-out: mortality in comparison with untreated controls. How it is done: (§3) The active compound was dissolved at the desired concentration in a mixture of 1:1 (vol:vol) distilled water: acetone. Surfactant (Kinetic® HV) was added at a rate of 0.01% (vol/vol). The test solution was prepared at the day of use.
Soybean pods were placed in 90×50 mm glass Petri dishes lined with moist filter paper and inoculated with ten late 3rd instar N. viridula. Using a hand atomizer, an approximately 2 ml solution was sprayed into each Petri dish. Treated cups were kept at about 25-26° C. and relative humidity of about 65-70%. Percent mortality was recorded after 5 days.

The test system of data set [4] is Green Peach Aphid (Myzus persicae). The data set can be described thus: Green peach aphid (Myzus persicae) foliar spray test B.7. To be noted: for Activity in %: comparative experiment, 300 ppm. How it is done:
as §1
Bell pepper plants at the first true-leaf stage were infested prior to treatment by placing heavily infested leaves from the main colony on top of the treatment plants. Aphids were allowed to transfer overnight to accomplish an infestation of 30-50 aphids per plant and the host leaves were removed. The infested plants were then sprayed by an automated electrostatic plant sprayer equipped with an atomizing spray nozzle. The plants were dried in the sprayer fume hood, removed, and then maintained in a growth room under fluorescent lighting in a 24 h photoperiod at about 25° C. and about 20-40% relative humidity. Aphid mortality on the treated plants, relative to mortality on untreated control plants, was determined after 5 days.
as §2

The test system of data set [5] is Orchid thrips (Dichromothrips corbetti). The data set can be described thus: Orchid thrips (Dichromothrips corbetti) floral immersion test B.10. The following applies: for Activity in %: comparative experiment, 10 ppm. How it is done:
Dichromothrips corbetti adults used for bioassay were obtained from a colony maintained continuously under laboratory conditions. For testing purposes, the test compound was diluted in a 1:1 mixture of acetone:water (vol:vol), plus Kinetic® HV at a rate of 0.01% v/v.
Thrips potency of each compound was evaluated by using a floral immersion technique. All petals of individual, intact orchid flowers were dipped into treatment solution and allowed to dry in Petri dishes. Treated petals were placed into individual re-sealable plastic along with about 20 adult thrips. All test arenas were held under continuous light and a temperature of about 28° C. for duration of the assay. After 3 days, the numbers of live thrips were counted on each petal. The percent mortality was recorded 72 hours after treatment.
as §2

The subject of data set [6] is Rice brown plant hopper (Nilaparvata lugens). The data set can be described thus: Rice brown plant hopper (Nilaparvata lugens) spray test B.13. The following applies: 72 h, read-out: mortality in comparison with untreated controls. How it is done:
Four to five-week old rice seedlings were cleaned and washed 24 hours before spraying. The active compounds were formulated in 1:1 acetone:water (vol:vol) and 0.01% vol/vol surfactant (Kinetic® HV) was added. Potted rice seedlings were sprayed with 5-6 ml test solution, air dried, covered with Mylar cages and inoculated with 10 adults. Treated rice plants were kept at about 28-29° C. and relative humidity of about 50-60%. Percent mortality was recorded after 72 hours.

Data set [7] deals with Rice green leafhopper (Nephotettix virescens). The data set can be described thus: Rice green leafhopper (Nephotettix virescens) spray test B.12. The following applies: for Activity in %: comparative experiment, 10 ppm. The procedure:
Four to five-week old rice seedlings with cut upper leaf portion were cleaned and washed 24 hours before spraying. The active compounds were formulated in 1:1 acetone:water (vol:vol), and 0.01% vol/vol surfactant (Kinetic® HV) was added. Potted rice seedlings were sprayed with 5-6 ml test solution, air dried, covered with Mylar cages and inoculated with 10 adults. Treated rice plants were kept at about 28-29° C. and relative humidity of about 50-60%. Percent mortality was recorded after 72 hours.
as §2

The subject of data set [8] is Southern armyworm (Spodoptera eridania). The data set can be described thus: Southern armyworm (Spodoptera eridania) foliar spray test B.15. The following applies: for Activity in %: comparative experiment, 300 ppm. How it is done: as §1
Lima bean plants (variety Sieva) were grown 2 plants to a pot and selected for treatment at the 1st true leaf stage. Test solutions were sprayed onto the foliage by an automated electrostatic plant sprayer equipped with an atomizing spray nozzle. The plants were dried in the sprayer fume hood and then removed from the sprayer. Each pot was placed into perforated plastic bags with a zip closure. About 10 to 11 armyworm larvae were placed into the bag and the bags zipped closed. Test plants were maintained in a growth room at about 25° C. and about 20-40% relative humidity for 4 days, avoiding direct exposure to fluorescent light (24 hour photoperiod) to prevent trapping of heat inside the bags. Mortality and reduced feeding were assessed 4 days after treatment, compared to untreated control plants.
as §2

The test system of data set [9] is Cowpea aphid (Aphis craccivora). The data set can be described thus: Cowpea aphid (Aphis craccivora) spray test B.5. The following applies: for Activity in %: comparative experiment, 100 ppm. The procedure:
as §3
Potted cowpea plants were colonized with approximately 30-50 aphids of various stages by manually transferring a leaf tissue cut from infested plant 24 hours before application. Plants were sprayed with the test solutions using a DeVilbiss® hand atomizer at 20-30 psi (≈1.38 to 2.07 bar) after the pest population has been checked. Treated plants were maintained on light carts at about 25-26° C. Percent mortality was assessed after 72 hours.
as §2

The subject of data set [10] is Diamond back moth (Plutella xylostella). The data set can be described thus: Diamond back moth (Plutella xylostella) leaf dip test B.6. To be noted: 300 ppm; cabbage leaf dip; 72 hours after treatment. The procedure:
as §3
Leaves of cabbage were dipped in test solution and air-dried. Treated leaves were placed in petri dishes lined with moist filter paper and inoculated with ten 3rd instar larvae. Mortality was recorded 72 hours after treatment. Feeding damages were also recorded using a scale of 0-100%.

As for `N#CC1(C(=O)N=c2ccccn2Cc2cnc(Cl)nc2)CC1` [I-1, N-[1-[(2-chloropyrimidin-5-yl)methyl]-2-pyridylidene]-1-cyano-cyclopropanecarboxamide], the mortality at 300 ppm in data set [1] (Aphis gossypii, foliar, 120 h, read-out: mortality in comparison with untreated controls) is more than 75%; in data set [3], more than 75%; in [5] (Thrips, 72 h, read-out: mortality in comparison with untreated controls), more than 75%; in data set [6], more than 75%; in data set [7] (Nephotettix virescens, 72 h, read-out: mortality in comparison with untreated controls) it was more than 75%; in data set [8] (Spodoptera eridania, in Phaseolus lunatus, foliar, 96 h, read-out: mortality in comparison with untreated controls), more than 75%. Moreover, in data set [9] (Aphis craccivora, 72 h, read-out: mortality in comparison with untreated controls), the mortality at 300 ppm is more than 75%. Also, the Activity in % in data set [1] stood at 90%; in [4], 100%; in [5], 100%; in [7] it was 90%; in data set [8], 100%; in data set [9] it was 50%. In addition, the mortality at 2500 ppm was more than 75% in [2] and more than 75% in data set [4] (Myzus persicae, foliar, 120 h, read-out: mortality in comparison with untreated controls).
`CON=CC(=O)N=c1ccccn1Cc1cnc(Cl)nc1` [I-2]: the “mortality in comparison with untreated controls” value in data set [10] is listed as “over 75%”.
In the case of `N#CC1(C(=O)N=c2ccccn2Cc2cncnc2)CC1` [I.B-4, reference compound], the Activity in % was 0% in data set [1]; 50% in data set [4]; 0% in [5]; 50% in [7]; 0% in data set [8]; 0% in [9].
